Patent US11795181B2, “Basic copper gluconate” (JOST CHEMICAL CO., priority 2020, dated 2023)

Experiments:
Aqueous solubility = type: physicochemical; settings: in water
Excerpt: However, at higher concentrations (i.e., 30% and above), solutions are prone to secondary redox reactions if left to sit for prolonged periods in the open air. Copper (II) slowly oxidizes gluconic acid producing a red precipitate of cuprous oxide (Cu2O). […] This is less evident in the 25% solution of basic copper gluconate than in the remaining, higher percentage, solutions.

[1] = background statement; cited from earlier work

Structure (SMILES)	water solubility (Aqueous solubility)	aqueous solubility (in words) [1]
O=C([O][Cu][OH])C(O)C(O)C(O)C(O)CO (centres unmarked) [Basic copper gluconate]	over 50 g/100 g water	–
O=C([O-])[C@H](O)[C@@H](O)[C@H](O)[C@H](O)CO.O=C([O-])[C@H](O)[C@@H](O)[C@H](O)[C@H](O)CO.[Cu+2] [copper gluconate, Copper gluconate]	–	excellent aqueous solubility
